The values that follow come from patent EP4810040A2, “INHIBITORS OF APOL1 AND METHODS OF USING SAME” (priority 2020, dated 2022).

A word on the IC90: it is the concentration needed for an effect of 90%. In general, IC50 refers to the concentration that inhibits the measured activity by half.

Like-named read-outs stand apart in the source and are kept apart here. Some results are limits rather than exact numbers.

The target of the assay is T1, APOL1 G1 (Homo sapiens, UniProt O14791, I384M/S342G).
T1 sequence (O14791 28-398 S342G/I384M): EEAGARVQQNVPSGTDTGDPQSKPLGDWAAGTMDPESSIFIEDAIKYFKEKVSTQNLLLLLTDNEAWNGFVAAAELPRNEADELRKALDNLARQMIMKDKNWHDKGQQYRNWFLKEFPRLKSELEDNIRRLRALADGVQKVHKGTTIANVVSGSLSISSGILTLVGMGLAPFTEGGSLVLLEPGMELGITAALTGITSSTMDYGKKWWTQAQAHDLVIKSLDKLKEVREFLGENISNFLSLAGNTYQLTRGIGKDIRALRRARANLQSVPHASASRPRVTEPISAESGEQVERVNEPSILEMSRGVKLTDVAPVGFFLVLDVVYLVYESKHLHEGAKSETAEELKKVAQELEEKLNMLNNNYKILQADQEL
In words: MultiTox-Fluor Multiplex Cytotoxicity Assay, tet-inducible APOL1 G1 T-REx-HEK293 cells. Type of assay: cell-based. On the set-up: expressed in transfected cells; host or cells: T-REx HEK293, clone G1 DC3.25 (pAAVS1-Puro-APOL1 G1). Conditions: for IC90: read-out: Multi-Tox Assay IC90; for Emax: read-out: Multi-Tox Assay Max Activity (%). In a few lines: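 T-REx-HEK293 cells carrying tet-inducible APOL1 G1 induced with 50 ng/mL tet alongside compound (top 10 µM, 10-point 3-fold, duplicate) for 24 h at 37 °C. MultiTox-Fluor dead/live protease fluorescence ratio read after 30 min; normalized to no-tet (100% viability) and tet-treated (0%) controls, then curve-fitted.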

Setting [1] is: HEK293, Multi-Tox Assay, APOL1 variant (G0/G1/G2) of the HEK293 cells not given.
Where [2] appears, read: Multi-Tox Assay, APOL1 variant not given.
Setting [3] is: Multi-Tox Assay, APOL1 variant (G0/G1/G2) not stated in Table 46.
Where [4] appears, read: Multi-Tox Assay, APOL1 variant not stated in Table 46.

On to `CCc1cc2c(s1)CCO[C@@]21C[C@@H](c2cnn(CCS(C)(=O)=O)c2)N[C@@H](C)C1` [Compound 5], for which the IC90 under setting [1] fell in the range of 50 to 500 nM. In addition, the “Multi-Tox Assay Max Activity (%)” value under setting [2] is 100.0%.
`C[C@H]1C[C@@]2(C[C@@H](c3ccc[nH]c3=O)N1)OCCc1cc(Cl)sc12` (racemic) [Compound 121]: the 90% effect concentration (IC90) under setting [1] was in the range of 50 to 500 nM.
With `Cc1nn(C)cc1[C@@H]1C[C@]2(C[C@H](C)N1)OCCc1cc(Cl)sc12` (racemic) [Compound 142], under setting [1], the IC90 lay in the range of 50 to 500 nM.
Take `Cc1nc([C@@H]2C[C@]3(C[C@H](C)N2)OCCc2cc(Cl)sc23)c[nH]1` (racemic) [Compound 156]: the IC90 under setting [1] was more than 500 nM. Under setting [2], the “Multi-Tox Assay Max Activity (%)” value stood at 93.0%.
Taken in the same sequence, the figures for `Cc1ccnn1CCn1cc([C@@H]2C[C@]3(C[C@H](C)N2)OCC(F)(F)c2cc(Cl)sc23)nn1` [Compound 315] were 50 to 500 nM and 98.0%.
Taken in the same sequence, the figures for `C[C@H]1C[C@@]2(C[C@@H](c3cn(CC#N)nn3)N1)OC[C@@H](O)c1cc(Cl)sc12` [Compound 255] were 50 to 500 nM and 100.0%.
`Cc1nc([C@@H]2C[C@]3(C[C@H](C)N2)OCCc2cc(Cl)sc23)oc1C` (racemic) [Compound 144]: the concentration for an effect of 90% (IC90) under setting [1] is more than 500 nM. The “Multi-Tox Assay Max Activity (%)” value under setting [2] is recorded as 98.0%.
The matching figures for `C[C@H]1C[C@@]2(C[C@@H](c3cccc(-c4cn[nH]c4)c3)N1)OCCc1cc(Cl)sc12` (racemic) [Compound 148]: 50 to 500 nM and 97.0%.
For `C[C@H]1C[C@@]2(C[C@@H](c3cccc(C(N)=O)c3)N1)OCCc1cc(Cl)sc12` (racemic) [Compound 109], the 90% effect concentration (IC90) under setting [1] is 50 to 500 nM. In addition, the “Multi-Tox Assay Max Activity (%)” value under setting [2] came out at 100.0%.
Take `C[C@H]1C[C@@]2(C[C@@H](c3cn(Cc4cccc(CO)c4)nn3)N1)OC[C@@H](O)c1cc(Cl)sc12` [Compound 271]: under setting [1], the concentration for an effect of 90% (IC90) lay within 50 to 500 nM. Besides, the “Multi-Tox Assay Max Activity (%)” value under setting [2] came out at 97.0%.
The matching figures for `Cc1ncoc1[C@@H]1C[C@]2(C[C@H](C)N1)OCCc1cc(Cl)sc12` (racemic) [Compound 157]: more than 500 nM and 96.3%.
Take `C[C@@H]1CC2(C[C@H](C)N1)OCCc1cc(CC(F)F)sc12` (single isomer, unassigned) [Compound 203]: under setting [1], the IC90 is less than 50 nM. Besides, under setting [2], the Emax is 99.3%.
Taken in the same sequence, the figures for `Cc1cc([C@@H]2C[C@]3(C[C@H](C)N2)OCCc2cc(Cl)sc23)ccn1` (racemic) [Compound 21, (2S)-2-chloro-2'-methyl-6'-(2-methyl-4-pyridyl)spiro[4,5-dihydrothieno[2,3-c]pyran-7,4'-piperidine]] were less than 50 nM and 99.7%.
As to `C[C@H]1C[C@@]2(C[C@@H](c3ncccc3O)N1)OCCc1cc(Cl)sc12` (racemic) [Compound 172], under setting [1], the 90% effect concentration (IC90) was more than 500 nM. Also, the “Multi-Tox Assay Max Activity (%)” value under setting [2] was 52.0%.
The matching figures for `COc1cc(F)cc(Cn2cc([C@@H]3C[C@]4(C[C@H](C)N3)OCC(F)(F)c3cc(Cl)sc34)nn2)c1` [Compound 333]: 50 to 500 nM and 97.0%.
Regarding `C[C@@H]1CC2(C[C@H](C)N1)OCCc1cc(C3CC(F)(F)C3)sc12` (single isomer, unassigned) [Compound 198], under setting [1], the IC90 lay in the range of 50 to 500 nM. Besides, under setting [2], the Emax came to 98.7%.
`CC1CC2(CC(c3cccc(C#N)c3)N1)OCCc1cc(Cl)sc12` (centres unmarked) [Compound 24]: under setting [1], the concentration for an effect of 90% (IC90) was less than 50 nM. Also, the “Multi-Tox Assay Max Activity (%)” value under setting [2] is given as 100.0%.
As to `CC(C)C1CC2(CC(c3cn(C)nn3)N1)OCCc1cc(C(F)(F)F)sc12` (centres unmarked) [Compound 191], the 90% effect concentration (IC90) under setting [1] lay within 50 to 500 nM. Under setting [2], the Emax was 99.7%.
Turning to `C[C@H]1C[C@@]2(C[C@@H](c3cn(CC4(CO)CC4)nn3)N1)OC[C@@H](O)c1cc(Cl)sc12` [Compound 242], the IC90 under setting [1] fell in the range of 50 to 500 nM. Further, under setting [2], the “Multi-Tox Assay Max Activity (%)” value is 97.0%.
Take `C[C@H]1C[C@@]2(C[C@@H](c3cn(CC#N)nn3)N1)OCC(F)(F)c1cc(Cl)sc12` [Compound 369]: under setting [3], the IC90 is more than 500 nM. The “Multi-Tox Assay Max Activity (%)” value under setting [4] was determined as 98.0%. Also, the IC50 (Multi-Tox Assay, IP50 = IC50 for cell proliferation, APOL1 variant not stated in Table 46) lay within 50 to 500 nM.
For `Cn1cc(C2CC3(CC(C(F)F)N2)OCCc2cc(Cl)sc23)nn1` (centres unmarked) [Compound 388, 2-chloro-2'-(difluoromethyl)-6'-(1-methyltriazol-4-yl)spiro[4,5-dihydrothieno[2,3-c]pyran-7,4'-piperidine]], the 90% effect concentration (IC90) under setting [3] was more than 500 nM. For the same compound, under setting [4], the Emax turned out to be 90%.
Turning to `C[C@H]1C[C@@]2(C[C@@H](c3n[nH]c4ccccc34)N1)OCCc1cc(Cl)sc12` (racemic) [Compound 169], the IC90 under setting [1] is more than 500 nM. The “Multi-Tox Assay Max Activity (%)” value under setting [2] came to 86.8%.
In the case of `[2H][13C]([2H])([2H])n1cc([C@@H]2[13CH2][C@]3(C[C@H](C)N2)OC[C@@H](O)c2cc(C(F)(F)F)sc23)nn1` [Compound 386, (2S,4S,4'S,6S)-2-methyl-6-(1-(methyl-^13C-d3)-1H-1,2,3-triazol-4-yl)-2'-(trifluoromethyl)-4',5'-dihydrospiro[piperidine-4,7'-thieno[2,3-c]pyran]-5-^13C-4'-ol], the concentration for an effect of 90% (IC90) under setting [3] was less than 50 nM. Besides, the Emax under setting [4] was found to be 100%.
With `CCc1nc([C@@H]2C[C@]3(C[C@H](C)N2)OCCc2cc(Cl)sc23)c[nH]1` (racemic) [Compound 128], the IC90 under setting [1] lay within 50 to 500 nM. The “Multi-Tox Assay Max Activity (%)” value under setting [2] was found to be 99.3%.
In the case of `Cc1cccc([C@@H]2C[C@]3(C[C@H](C)N2)OCCc2cc(Cl)sc23)n1` (racemic) [Compound 126], under setting [1], the IC90 lay within 50 to 500 nM. Also, under setting [2], the “Multi-Tox Assay Max Activity (%)” value worked out at 99.4%.
Taken in the same sequence, the figures for `Cc1ccc([C@@H]2C[C@]3(C[C@H](C)N2)OCCc2cc(Cl)sc23)nn1` (racemic) [Compound 58] were less than 50 nM and 99.7%.
As to `C[C@H]1C[C@@]2(C[C@@H](c3cn(Cc4cncs4)nn3)N1)OCC(F)(F)c1cc(Cl)sc12` [Compound 365], under setting [3], the 90% effect concentration (IC90) is 50 to 500 nM.
Regarding `Cc1ncc(Cn2cc([C@@H]3C[C@]4(C[C@H](C)N3)OCC(F)(F)c3cc(Cl)sc34)nn2)cn1` [Compound 318], the 90% effect concentration (IC90) under setting [1] is less than 50 nM.
Turning to `C[C@H]1C[C@@]2(C[C@@H](c3cnc(C4CCOCC4)o3)N1)OCCc1cc(Cl)sc12` (racemic) [Compound 140], under setting [1], the IC90 lay in the range of 50 to 500 nM. In addition, the “Multi-Tox Assay Max Activity (%)” value under setting [2] is reported as 99.7%.
The matching figures for `C[C@H]1C[C@@]2(C[C@@H](c3cn(Cc4cccc5c4OCCO5)nn3)N1)OCC(F)(F)c1cc(Cl)sc12` [Compound 310]: more than 500 nM and 94.0%.
On to `COCC1CC2(CC(c3cn(C)nn3)N1)OCCc1cc(C(F)(F)F)sc12` (centres unmarked) [Compound 193], for which, under setting [1], the IC90 was in the range of 50 to 500 nM. In addition, the Emax under setting [2] amounted to 99%.
As for `C[C@H]1C[C@@]2(C[C@@H](c3ccc(C(N)=O)cc3)N1)OCCc1cc(Cl)sc12` (racemic) [Compound 47], the IC90 under setting [1] was less than 50 nM. For the same compound, under setting [2], the Emax was 99.3%.
In the case of `C#C[C@@H]1C[C@]2(C[C@H](C)N1)OCC(F)(F)c1cc(Cl)sc12` [Compound 223, (2'S,6'S,7S)-2-chloro-2'-ethynyl-4,4-difluoro-6'-methyl-spiro[5H-thieno[2,3-c]pyran-7,4'-piperidine]], under setting [1], the IC90 was more than 500 nM. In addition, the Emax under setting [2] stood at 93%.
As for `C[C@H]1C[C@@]2(C[C@@H](c3ccnnc3)N1)OCCc1cc(Cl)sc12` (racemic) [Compound 93], under setting [1], the 90% effect concentration (IC90) was less than 50 nM. Further, under setting [2], the Emax was found to be 99.3%.
The matching figures for `C[C@H]1CC2(C[C@@H](c3cn(C)nn3)N1)OCCc1sc(Cl)cc12` (single isomer, unassigned) [Compound 173]: less than 50 nM and 99.5%.
For `CNC(=O)c1ccc(C2CC3(CC(C)N2)OCCc2cc(Cl)sc23)cc1` (centres unmarked) [Compound 41], under setting [1], the 90% effect concentration (IC90) was less than 50 nM. In addition, the “Multi-Tox Assay Max Activity (%)” value under setting [2] is 99.7%.
`Cc1noc(C)c1Cn1cc([C@@H]2C[C@]3(C[C@H](C)N2)OCC(F)(F)c2cc(Cl)sc23)nn1` [Compound 353]: the IC90 under setting [1] is less than 50 nM. Besides, under setting [2], the “Multi-Tox Assay Max Activity (%)” value was found to be 100.0%.
Turning to `C[C@H]1C[C@@]2(C[C@@H](c3cn(C)nn3)N1)OCCc1cc(C(F)(F)F)sc12` [Compound 2, (2'S,6'S,7S)-2'-methyl-6'-(1-methyltriazol-4-yl)-2-(trifluoromethyl)spiro[4,5-dihydrothieno[2,3-c]pyran-7,4'-piperidine]], under setting [1], the concentration for an effect of 90% (IC90) is less than 50 nM. Further, the Emax under setting [2] came to 100%.
Turning to `C[C@H]1C[C@@]2(C[C@@H](c3cn(CC(O)c4ccccc4)nn3)N1)OC[C@@H](O)c1cc(Cl)sc12` (some centres unmarked) [Compound 281], the IC90 under setting [1] is 50 to 500 nM.
